Numbers after ± are expanded uncertainties.
Conditions: Liquid; for mass density: Vibrating tube method; for speed of sound: Light diffraction method

CCCCCCCCC(=O)OCC [ethyl nonanoate]
Conditions	mass density [kg/m3]	speed of sound [m/s]
293.15 K, 100 kPa	865.02 ± 0.39	–
295.24 K, 10000 kPa	–	1348.5 ± 46
295.29 K, 7000 kPa	–	1342.4 ± 46
295.35 K, 5000 kPa	–	1336.6 ± 46
295.41 K, 3000 kPa	–	1327.1 ± 45
295.53 K, 1000 kPa	–	1318.3 ± 44
295.67 K, 100 kPa	–	1303.3 ± 43
298.15 K, 100 kPa	860.89 ± 0.39	–
303.15 K, 100 kPa	856.75 ± 0.38	–
303.18 K, 10000 kPa	–	1318 ± 44
303.22 K, 3000 kPa	–	1296.2 ± 43
303.26 K, 1000 kPa	–	1278.4 ± 42
303.3 K, 7000 kPa	–	1307 ± 43
303.41 K, 5000 kPa	–	1298 ± 43
303.48 K, 100 kPa	–	1273.9 ± 42
313.08 K, 10000 kPa	–	1283.3 ± 42
313.14 K, 1000 kPa	–	1242.7 ± 40
313.15 K, 100 kPa	848.43 ± 0.38	–
313.45 K, 7000 kPa	–	1266 ± 42
313.56 K, 3000 kPa	–	1252.4 ± 40
313.77 K, 100 kPa	–	1224.9 ± 39
314.03 K, 5000 kPa	–	1262.6 ± 40
322.95 K, 7000 kPa	–	1231.4 ± 39
323.15 K, 100 kPa	840.09 ± 0.38	–
323.39 K, 10000 kPa	–	1246.8 ± 40
323.64 K, 5000 kPa	–	1215.5 ± 39
323.68 K, 100 kPa	–	1183.3 ± 37
324.78 K, 3000 kPa	–	1204.3 ± 39
324.85 K, 1000 kPa	–	1195.5 ± 37
332.89 K, 10000 kPa	–	1208.8 ± 39
332.93 K, 3000 kPa	–	1175.1 ± 36
333.15 K, 100 kPa	831.73 ± 0.38	–
333.21 K, 1000 kPa	–	1163.1 ± 36
334.21 K, 5000 kPa	–	1185 ± 37
334.21 K, 7000 kPa	–	1191.7 ± 37
334.94 K, 100 kPa	–	1142.9 ± 36
342.88 K, 3000 kPa	–	1137.2 ± 35
343.1 K, 10000 kPa	–	1170.1 ± 36
343.12 K, 5000 kPa	–	1153.6 ± 36
343.15 K, 100 kPa	823.33 ± 0.38	–
343.24 K, 1000 kPa	–	1123.8 ± 34
343.31 K, 7000 kPa	–	1157.3 ± 36
343.51 K, 100 kPa	–	1107.8 ± 33
351.94 K, 3000 kPa	–	1098.9 ± 33
352.22 K, 1000 kPa	–	1085.5 ± 33
352.39 K, 10000 kPa	–	1135 ± 34
353.15 K, 100 kPa	814.88 ± 0.38	–
353.27 K, 5000 kPa	–	1106.1 ± 33
353.32 K, 7000 kPa	–	1114.4 ± 34
354.18 K, 100 kPa	–	1065.4 ± 31
361.97 K, 5000 kPa	–	1078.7 ± 32
362.59 K, 7000 kPa	–	1085.6 ± 33
362.97 K, 3000 kPa	–	1063.9 ± 31
363 K, 10000 kPa	–	1106.9 ± 33
363.3 K, 1000 kPa	–	1046 ± 30
364.18 K, 100 kPa	–	1028.8 ± 30
371.77 K, 5000 kPa	–	1046.8 ± 30
371.91 K, 1000 kPa	–	1012.3 ± 29
371.99 K, 100 kPa	–	1003 ± 29
372.73 K, 3000 kPa	–	1024.3 ± 30
373.24 K, 10000 kPa	–	1068.4 ± 32
373.26 K, 7000 kPa	–	1045.8 ± 30
381.51 K, 5000 kPa	–	1011.2 ± 29
381.89 K, 100 kPa	–	965.2 ± 27
381.96 K, 3000 kPa	–	995.2 ± 28
383.17 K, 10000 kPa	–	1037.3 ± 30
383.69 K, 7000 kPa	–	1011.5 ± 29
384.3 K, 1000 kPa	–	971.3 ± 27
391.7 K, 5000 kPa	–	974.2 ± 27
391.74 K, 7000 kPa	–	985.8 ± 28
391.74 K, 10000 kPa	–	1009.8 ± 29
391.75 K, 1000 kPa	–	939.5 ± 26
391.81 K, 3000 kPa	–	961.1 ± 27
391.89 K, 100 kPa	–	932.1 ± 26
403.31 K, 1000 kPa	–	902.3 ± 24
403.36 K, 7000 kPa	–	943.9 ± 26
403.46 K, 3000 kPa	–	921.8 ± 25
403.47 K, 10000 kPa	–	968.6 ± 27
403.82 K, 5000 kPa	–	929.8 ± 26
405.01 K, 100 kPa	–	884 ± 24
412.73 K, 3000 kPa	–	893.7 ± 24
412.73 K, 10000 kPa	–	936.6 ± 26
412.81 K, 7000 kPa	–	917.8 ± 25
412.98 K, 1000 kPa	–	870.1 ± 24
413.05 K, 5000 kPa	–	904.2 ± 24
413.84 K, 100 kPa	–	861.2 ± 23
421.5 K, 5000 kPa	–	875.4 ± 24
421.83 K, 1000 kPa	–	842.1 ± 22
421.98 K, 10000 kPa	–	916 ± 25
422 K, 7000 kPa	–	891 ± 24
422.02 K, 3000 kPa	–	862.5 ± 23
422.07 K, 100 kPa	–	827.6 ± 22
431.53 K, 1000 kPa	–	808.9 ± 21
431.84 K, 5000 kPa	–	850.9 ± 22
431.86 K, 10000 kPa	–	888.7 ± 24
431.88 K, 7000 kPa	–	861.7 ± 23
432.05 K, 3000 kPa	–	827.6 ± 22
432.93 K, 100 kPa	–	797.1 ± 21
442.94 K, 1000 kPa	–	779.7 ± 20
443 K, 7000 kPa	–	835.6 ± 22
443.02 K, 10000 kPa	–	860.3 ± 23
443.11 K, 3000 kPa	–	796.4 ± 21
443.15 K, 5000 kPa	–	814.1 ± 21
443.7 K, 100 kPa	–	767.3 ± 19
452.5 K, 1000 kPa	–	750.6 ± 19
452.64 K, 7000 kPa	–	805 ± 21
452.65 K, 5000 kPa	–	786.9 ± 20
452.68 K, 10000 kPa	–	835.1 ± 22
452.83 K, 100 kPa	–	739.6 ± 19
452.88 K, 3000 kPa	–	771.1 ± 19
462.31 K, 3000 kPa	–	743.5 ± 19
462.34 K, 7000 kPa	–	783.1 ± 20
462.43 K, 10000 kPa	–	804.8 ± 21
462.49 K, 5000 kPa	–	763 ± 19
462.68 K, 1000 kPa	–	720.1 ± 18
464.19 K, 100 kPa	–	703.5 ± 18
471.8 K, 3000 kPa	–	718.5 ± 18
471.86 K, 5000 kPa	–	737.7 ± 18
471.86 K, 7000 kPa	–	756.6 ± 19
471.87 K, 1000 kPa	–	693.4 ± 17
471.88 K, 100 kPa	–	683 ± 16
471.95 K, 10000 kPa	–	783.4 ± 20
482.55 K, 1000 kPa	–	665.4 ± 16
482.56 K, 3000 kPa	–	691.9 ± 17
482.58 K, 7000 kPa	–	727.2 ± 18
482.62 K, 5000 kPa	–	709.2 ± 18
482.62 K, 10000 kPa	–	759.9 ± 19
482.75 K, 100 kPa	–	652.6 ± 16
492.48 K, 10000 kPa	–	735.7 ± 18
492.57 K, 3000 kPa	–	660.7 ± 16
492.66 K, 7000 kPa	–	704.9 ± 18
492.67 K, 5000 kPa	–	681.7 ± 16
493 K, 1000 kPa	–	637.4 ± 15
502.65 K, 3000 kPa	–	635.1 ± 15
502.91 K, 7000 kPa	–	681.8 ± 16
502.95 K, 1000 kPa	–	607.9 ± 15
503.08 K, 10000 kPa	–	709.9 ± 18
503.42 K, 5000 kPa	–	655.5 ± 16
512.78 K, 7000 kPa	–	655 ± 16
512.8 K, 10000 kPa	–	689.4 ± 17
512.83 K, 3000 kPa	–	609.6 ± 15
512.9 K, 5000 kPa	–	633.5 ± 15
513.2 K, 1000 kPa	–	581.3 ± 14
522.13 K, 1000 kPa	–	555.5 ± 13
522.19 K, 7000 kPa	–	631.9 ± 15
522.31 K, 3000 kPa	–	583.9 ± 14
522.36 K, 5000 kPa	–	609.3 ± 15
522.38 K, 10000 kPa	–	662 ± 16
533.35 K, 1000 kPa	–	519.4 ± 12
533.43 K, 7000 kPa	–	605.6 ± 15
533.52 K, 10000 kPa	–	637 ± 15
533.6 K, 3000 kPa	–	552.1 ± 13
533.69 K, 5000 kPa	–	581.4 ± 14
542.72 K, 3000 kPa	–	528.8 ± 12
542.76 K, 10000 kPa	–	619.6 ± 15
542.79 K, 7000 kPa	–	583 ± 14
542.91 K, 5000 kPa	–	553.5 ± 13
543.62 K, 1000 kPa	–	491 ± 11
552.52 K, 3000 kPa	–	500.5 ± 12
552.61 K, 7000 kPa	–	558.1 ± 13
552.71 K, 1000 kPa	–	458.7 ± 10
552.72 K, 5000 kPa	–	527.6 ± 12
552.76 K, 10000 kPa	–	596.5 ± 14
562.08 K, 1000 kPa	–	428.6 ± 9.6
562.32 K, 5000 kPa	–	499.9 ± 12
562.4 K, 7000 kPa	–	532 ± 12
562.45 K, 10000 kPa	–	574.7 ± 13
562.48 K, 3000 kPa	–	468.4 ± 10
571.78 K, 3000 kPa	–	435.9 ± 9.7
571.96 K, 1000 kPa	–	387.2 ± 8.7
572.13 K, 7000 kPa	–	504.6 ± 12
572.32 K, 10000 kPa	–	549 ± 13
572.37 K, 5000 kPa	–	472 ± 10
582.01 K, 5000 kPa	–	439.9 ± 9.8
582.26 K, 7000 kPa	–	473.6 ± 10
582.35 K, 10000 kPa	–	525.5 ± 12
582.39 K, 3000 kPa	–	393.3 ± 8.8
591.81 K, 3000 kPa	–	351.2 ± 7.6
592.38 K, 5000 kPa	–	398.5 ± 8.9
592.79 K, 7000 kPa	–	438.3 ± 9.8
593.15 K, 10000 kPa	–	495.3 ± 11

— the NIST ThermoML archive (doi:10.1021/acs.jced.9b00420)
